# Experimental data published in patent EP3290412A1, “HIV-1 NUCLEOCAPSID INHIBITORS” (Università degli Studi di Siena, priority 2016, dated 2018).
# Marks after values point to notes of the source that are not given here.
# Tests used:
# [1] = system: NIH Catalogue Number: 7400; conditions: cited from earlier work; for Level of resistance: NRTI resistant strain 7400; for Fold change: strain 7400, resistant virus IC50 to wild-type reference virus IC50 ratio, cut-off in brackets
# [2] = system: NIH Catalogue Number: 7401; conditions: cited from earlier work; for Level of resistance: NRTI resistant strain 7401; for Fold change: strain 7401, resistant virus IC50 to wild-type reference virus IC50 ratio, cut-off in brackets
# [3] = system: NIH Catalogue Number: 11808; conditions: cited from earlier work; for Level of resistance: PI resistant strain 11808; for Fold change: strain 11808, resistant virus IC50 to wild-type reference virus IC50 ratio, cut-off in brackets
# [4] = system: NIH Catalogue Number: 12465; conditions: cited from earlier work; for Level of resistance: PI resistant strain 12465; for Fold change: strain 12465, resistant virus IC50 to wild-type reference virus IC50 ratio, cut-off in brackets
# NC(11-55) = NC(11-55) (Human immunodeficiency virus type 1, UniProt P12493); assay: NC inhibition assay (NC-induced cTAR DNA destabilization, fluorescence); assay type: biochemical, HIV-1; conditions: for IC50: cTAR DNA 0.1 µM, 1 µM NC(11-55), 20 °C, pH 7.5, read-out: NC inhibition IC50; for inhibition at 100 µM: single point screening, positive = >25% inhibition at 100µM
# Source text: The NC inhibition assay is based on the nucleic acid chaperone activity of the NC protein. NC destabilizes the secondary structure of cTAR DNA, the complementary sequence of the transactivation response element, which is involved in minus-strand DNA transfer during reverse transcription. In the assay, the cTAR sequence from the HIV-1 Mal strain (Bernacchi et al, J Mol Biol, 2002) is labeled with a dye (Alexa488 fluorophore) and a quencher 4-(4'-dimethylaminophenylazo)benzoic acid (Dabcyl) at its 5' and 3' ends, respectively. In the absence of destabilization, the close proximity of both cTAR ends results in a strong fluorescence quenching of the dye emission by the Dabcyl group. NC(11-55) added to cTAR at a ratio of 10 NC/cTAR melts the bottom of the cTAR stem, which increases the distance between the dye and the quencher and as a result increases the dye fluorescence signal [Shvadchak et al, (2009) Identification by high throughput screening of small compounds inhibiting the nucleic acid destabilization activity of the HIV-1 nucleocapsid protein. Biochimie, 916-923]. NCIs are expected to prevent the NC-induced destabilization of cTAR and thus reverse the NC-induced increase in the fluorescence of the labeled cTAR. The activity of the inhibitor is thus evaluated from the ratio of the fluorescence intensity observed in the presence of NC with the molecule to the one in the absence of the compound.
# The doubly labelled cTAR DNA oligonucleotides (55nt) were synthesised and purified by IBA GmbH Nucleic Acids Product Supply (Göttingen, Germany). Extinction coefficient at 260 nm of 5.73 x 10^5 M^-1 cm^-1 was used to determine the concentration of cTAR.
# The NC(11-55) peptide (Avilov et al, Antimicrob Agents Chemother, 2012) was synthesized by solid-phase peptide synthesis on a 433A synthesizer (ABI, Foster City, CA) as previously described [De Rocquigny H, (1991) First large scale chemical synthesis of the 72 amino acid HIV-1 nucleocapsid protein NCp7 in an active form. Biochem Biophys Res Commun., 1010-1018]. The peptide was stored lyophilized and was resuspended in water before use. The concentration of peptide was determined by using an extinction coefficient of 5.7 x 10^3 M^-1 cm^-1 at 280 nm. Next, 2.5 molar equivalents of ZnSO4 were added and pH was raised to its final value by adding buffer.
# All experiments were performed at 20 °C in 25 mM Tris-HCl (pH 7.5), 30 mM NaCl, and 0.2 mM MgCl2. To evaluate the inhibition activity of compounds on NC-induced cTAR destabilization, cTAR DNA (0.1 µM) was preincubated with 1 µM NC(11-55) (molar ratio NC:cTAR = 10:1) for 15 min at room temperature before addition of compound. For single point screening, all compounds were tested at three final concentrations: 1 µM, 10 µM and 100 µM. For the IC50 determination, inhibition of NC-induced cTAR melting was monitored through addition of increasing concentrations of the selected molecules to the pre-formed NC(11-55)-cTAR complex. After the addition of compound, the mixture was incubated for 15 min at room temperature before the reading. The fluorescence signal was recorded with a plate reader Xenius (SAFAS Monaco) or Fluoromax 3 spectrofluorometer (Horiba Jobin-Yvon), and the excitation and emission wavelengths were 480 and 520 nm, respectively. The spectra were corrected for dilution, buffer fluorescence and screening effect (when it was required). In order to check the occurrence of aggregation, we performed additional reading of absorption with the plate reader Xenius (SAFAS Monaco) or Cary 4000 spectrophotometer (Agilent). […]
# [5] = system: HIV-1 reference strain NL4-3; assay: MonoCycle assay (TZM-bl cells); assay type: cell-based; conditions: Human immunodeficiency virus 1, NL43, TZM-bl, 48 h, read-out: Mono Cycle IC50 nM
# Experimental: MonoCycle assay is a cell based assay allowing the evaluation of antiviral activity of HIV-1 inhibitors targeting the early steps of HIV-1 life cycle such as entry, uncoating of viral particles, reverse transcription and integration. The assay consists in the infection of TZM-bl cells (20,000/well) with the HIV-1 reference strain NL4-3 in presence of serial five-fold dilutions of the investigational inhibitors. After 48 hours, cells were lysed adding 40 µl of Glo Lysis Buffer (Promega) to each well for 5 minutes, then 40 µl of Brighy-Glo Luciferase Reagent (Promega) were added to each well for relative luminescence units (RLU) counting using Glo-Max Multi Detection System (Promega). RLU values from each well were elaborated using the GraphPad v5.0 software to calculate the IC50 of each compound.
# [6] = system: HIV-1 reference strain NL4-3; assay: BiCycle assay (MT-2 then TZM-bl cells); assay type: cell-based; conditions: Human immunodeficiency virus 1, NL43, TZM-bl, read-out: BiCycle IC50 nM
# Experimental: BiCycle Assay is cell based assay allowing the evaluation of the antiviral activity of HIV-1 inhibitors on the whole replication cycle of HIV-1. The assay consists in a first round of infection of the T-cell line MT-2 followed by infection of TZM-bl cells. MT-2 cells were seeded at a concentration of 50,000 cells/well in a 96-well plate and infected with the HIV-1 reference strain NL4-3 in presence of five-fold dilutions of the investigational compounds. After 72 hours, 50 µl of supernatant from each well, containing the virus produced in the first round of infection, were used to infect TZM-bl cells seeded in a 96-plate well at a concentration of 30,000 cells/well. Two days later, cells were lysed adding 40 µl of Glo Lysis Buffer (Promega) to each well for 5 minutes, then 40 µl of Brighy-Glo Luciferase Reagent (Promega) were added to each well for relative luminescence units (RLU) counting using Glo-Max Multi Detection System (Promega). RLU values from each well were elaborated using the GraphPad v5.0 software to calculate the IC50 of each compound.
# [7] = biological target: T1, full length (1-55) HIV-1 NCp7 (Human immunodeficiency virus type 1 group M subtype B, UniProt P12493); assay: Electromobility Shift Assay (EMSA), competition for ssDNA binding; conditions: NCp7 300 nM, M13mp18 ssDNA; positive = >25% inhibition at 100µM
# T1 construct: recombinant full length (1-55) HIV-1 NCp7 proteins; made in house
# Source text: The assay used a recombinant full length (1-55) HIV-1 NCp7 proteins based on the NL4-3 sequence (GenBank accession number AF324493). The protein was expressed and purified as described in [Carteau, S., Gorelick, R. J. & Bushman, F. D. Coupled integration of human immunodeficiency virus type 1 cDNA ends by purified integrase in vitro: stimulation by the viral nucleocapsid protein. Journal of virology 73, 6670-6679 (1999)].
# Competition for single-stranded (ss) DNA binding was realized by mixing 1 µL of serial dilutions of NC inhibitors (diluted in DMSO) with 44 µL of NCp7 (300 nM) in a reaction buffer (20 mM Tris-HCl pH 7.4, 2 mM MgCl2, 100 mM NaCl, 1 mM DTT). 5 µL of a 10 ng/µL (4 nM) solution of M13mp18 ssDNA (BayouBiolabs) were then added and the tubes were incubated for 25 minutes at 37 °C. The reaction was terminated by chilling the tubes on ice followed by the addition of 5 µL of a loading buffer (30% glycerol, 0.01% xylene cyanol, 10 mM Tris-HCl pH 7.4). Samples were then resolved on 25 cm-long, 1% (w/v) agarose gels (SeaKem LE Agarose, Lonza) in 0.5x TBE. Gels were run in a Sub-Cell GT cuvette (BioRad) for 18 h at room temperature at 3 V/cm, stained with SybrGold (Molecular Probes) and scanned for fluorescence using a Typhoon 8600 (GE Healthcare). The experiments were performed in triplicate. Competition efficiency was realized by measuring the relative distance in pixels between the unbound ssDNA control, the NCp7-bound ssDNA control and the bound ssDNA for each points of the titration with the ImageQuant software. The IC50 was estimated as the NC inhibitors concentrations for which the bound ssDNA migrated at 50% of the distance separating the bound from the unbound ssDNA.
# [8] = system: NIH Catalogue Number: 12231; conditions: cited from earlier work; for Level of resistance: NNRTI resistant strain 12231; for Fold change: strain 12231, resistant virus IC50 to wild-type reference virus IC50 ratio, cut-off in brackets
# [9] = system: NIH Catalogue Number: 12229; conditions: cited from earlier work; for Level of resistance: NNRTI resistant strain 12229; for Fold change: strain 12229, resistant virus IC50 to wild-type reference virus IC50 ratio, cut-off in brackets
smiles,measurement,setting,value
Nc1nc(NC2CC2)c2ncn([C@H]3C=C[C@@H](CO)C3)c2n1 [Abacavir],Level of resistance,[1],High resistance
same,Fold change,[1],7.7 (4.5^c)
same,Level of resistance,[2],High resistance
same,Fold change,[2],7.4 (4.5^c)
COC(=O)N[C@H](C(=O)N[C@@H](Cc1ccccc1)[C@@H](O)CN(Cc1ccc(-c2ccccn2)cc1)NC(=O)[C@@H](NC(=O)OC)C(C)(C)C)C(C)(C)C [Atazanavir],Level of resistance,[3],High resistance
same,Fold change,[3],90 (2.2^c)
same,Level of resistance,[4],High resistance
same,Fold change,[4],110 (2.2^c)
"O=C(c1nc(-c2ccccn2)nc(O)c1O)N1CCC(c2ccccc2)CC1 [Compound 9, (5,6-dihydroxy-2-(pyridin-2-yl)pyrimidin-4-yl)(4-phenylpiperidin-1-yl)methanone]",IC50,NC(11-55),128 µM
same,inhibition at 100 µM,NC(11-55),> 25%
same,IC50,[5],32900 nM
same,IC50,[6],2000 nM
same,EMSA screening results,[7],Negative
"C[C@@H](NC(=O)c1nc(-c2nccc3[nH]ccc23)nc(O)c1O)C1CCCCC1 [Compound 85, (R)-N-(1-cyclohexylethyl)-5,6-dihydroxy-2-(1H pyrrolo[3,2-c]pyridin-4-yl)pyrimidine-4-carboxamide]",IC50,NC(11-55),11.5 µM
same,inhibition at 100 µM,NC(11-55),> 25%
same,IC50,[5],> 50000 nM
same,IC50,[6],2670 nM
same,EMSA screening results,[7],"Positive (A compound showing >25% inhibition when tested at 100µM concentration is considered as ""positive"")"
CC(C)CN(C[C@@H](O)[C@H](Cc1ccccc1)NC(=O)O[C@H]1CO[C@H]2OCC[C@H]21)S(=O)(=O)c1ccc(N)cc1 [Darunavir],Level of resistance,[3],High resistance
same,Fold change,[3],127 (10^c)
same,Level of resistance,[4],Susceptible
same,Fold change,[4],5.2 (10^c)
O=C1Nc2ccc(Cl)cc2[C@@](C#CC2CC2)(C(F)(F)F)O1 [Efavirenz],Level of resistance,[8],High resistance
same,Fold change,[8],90 (3^b)
same,Level of resistance,[9],High resistance
same,Fold change,[9],>200 (3^b)
Nc1nc(=O)n([C@@H]2CS[C@H](CO)O2)cc1F [Emtricitabine],Level of resistance,[1],High resistance
same,Fold change,[1],>200 (3.5^c)
same,Level of resistance,[2],High resistance
same,Fold change,[2],>200 (3.5^c)
Cc1cc(C#N)cc(C)c1Oc1nc(Nc2ccc(C#N)cc2)nc(N)c1Br [Etravirine],Level of resistance,[8],High resistance
same,Fold change,[8],8.8 (2.9^c)
same,Level of resistance,[9],High resistance
same,Fold change,[9],6.8 (2.9^c)
Cc1cccc(C)c1OCC(=O)N[C@@H](Cc1ccccc1)[C@@H](O)C[C@H](Cc1ccccc1)NC(=O)[C@H](C(C)C)N1CCCNC1=O [Lopinavir],Level of resistance,[3],High resistance
same,Fold change,[3],70 (10^c)
same,Level of resistance,[4],Intermediate resistance
same,Fold change,[4],36 (10^c)
Cc1ccnc2c1NC(=O)c1cccnc1N2C1CC1 [Nevirapine],Level of resistance,[8],High resistance
same,Fold change,[8],>200 (4.5^b)
same,Level of resistance,[9],High resistance
same,Fold change,[9],>200 (4.5^b)
C[C@H](Cn1cnc2c(N)ncnc21)OCP(=O)(O)O [Tenofovir],Level of resistance,[1],High resistance
same,Fold change,[1],2.3 (1.4^c)
same,Level of resistance,[2],High resistance
same,Fold change,[2],1.5 (1.4^c)
Cc1cn([C@H]2C[C@H](N=[N+]=[N-])[C@@H](CO)O2)c(=O)[nH]c1=O [Zidovudine],Level of resistance,[1],High resistance
same,Fold change,[1],61 (1.9^b)
same,Level of resistance,[2],High resistance
same,Fold change,[2],24 (1.9^b)
